What was measured:
Format in all cases: cell-based
Set-up in all cases: expressed in transfected cells; host or cells: HEK293 cells transfected with VIPR2 in pCDNA3.1 (as described)
[1] = target: T1, VIPR2 (Homo sapiens, UniProt P41587); experiment: Inhibition of VIP-induced β-arrestin recruitment (% Activity Arrestin)
T1 sequence (P41587 24-438): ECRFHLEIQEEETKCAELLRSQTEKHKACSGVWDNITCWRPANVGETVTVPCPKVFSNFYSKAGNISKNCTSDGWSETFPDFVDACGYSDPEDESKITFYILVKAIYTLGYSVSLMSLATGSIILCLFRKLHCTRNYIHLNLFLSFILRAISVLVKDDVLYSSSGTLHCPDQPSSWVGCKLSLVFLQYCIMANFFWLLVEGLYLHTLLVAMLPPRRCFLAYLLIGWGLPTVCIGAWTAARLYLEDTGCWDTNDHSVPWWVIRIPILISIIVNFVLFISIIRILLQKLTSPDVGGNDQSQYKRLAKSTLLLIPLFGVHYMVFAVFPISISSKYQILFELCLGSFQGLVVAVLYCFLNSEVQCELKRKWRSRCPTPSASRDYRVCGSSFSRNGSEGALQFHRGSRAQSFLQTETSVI
Text: (§1) In a further non-limiting embodiment of the invention, the ability of a compound to inhibit VIPR2 GPCR activity may be tested, for example, using the PathHunter® eXpress β-Arrestin GPCR system (Discoverx Corporation, Fremont, Calif., US), as used by Chu et al., 2010, Molecular Pharmacol. 7795-101. In this assay, β-Arrestin is fused to the “Enzyme Acceptor” (“EA”), an N-terminal deletion mutant of β-gal, and the GPCR of interest is fused to a smaller (42 amino acids), weakly complementing portion of the β-gal enzyme (termed “ProLink™”). In cells that stably express these fusion proteins, the interaction of β-Arrestin and the GPCR following ligand stimulation forces the complementation of the two β-gal fragments resulting in the formation of a functional enzyme that converts substrate to detectable signal. In the absence of an interaction between the GPCR and β-Arrestin, the enzyme activity is low due to the low affinity of the two enzyme fragments. For example, a nucleic acid encoding VIPR2, for example hVIPR2, may be cloned into the ProLink vector (DiscoveRx) for GPCR-ProLink fusion protein production. Parental HEK293 cells that stably express β-arrestin2-β-gal-EA fusion protein (DiscoveRx) may be detached and transiently transfected with the VIPR2-containing vector using Fugene6 transfection reagent in suspension mode. Transfected cells in assay medium may be plated into test plates, for example at 15,000 cells/25 μl/well. After overnight incubation, 500 nl of an inhibitor or test inhibitor may be introduced into the test plate followed by 2 h incubation at 37° C., 5% CO2. Flash detection reagents may be added at 12.5 μl/well. After 5 min to 1 h of room-temperature incubation, the cell plates may be read on CLIPR (PerkinElmer Life and Analytical Sciences)or Acquest (Molecular Devices, Sunnyvale, Calif.) for luminescence signal.
(§2) A series of compounds were prepared using a synthetic method analogous to that set forth in Scheme 1, above, and then tested for their ability to inhibit VIP-induced cAMP elevation and β-arrestin recruitment.
(§3) A series of compounds were prepared using a synthetic method analogous to that set forth in Scheme 1, above, and then tested for their ability to inhibit VIP-induced cAMP elevation and β-arrestin recruitment, as described herein (Discoverx Corporation, Fremont, Calif., US). Compound activities were also tested in a BRET-based assay, as described herein. The results are shown below in Tables 1-4, above.

[2] = target: T1, VIPR2; experiment: Inhibition of VIP-induced cAMP elevation (% Activity cAMP)
Text: (§4) In a further non-limiting embodiment of the invention, the ability of a compound to inhibit VIPR2 and thereby […] a VIP-induced increase in cAMP may be measured using a Homogeneous Time-Resolved Fluorescence (“HTRF® assay; Cisbio Bioassays) as used in Chu et al., 2010, Molecular Pharmacol. 7795-101. In a method as used in Chu et al., 2010, Molecular Pharmacol. 7795-101, HEK293 cells may be transfected with nucleic acid encoding VIPR2, for example human VIPR2 (“hVIPR2”), for example comprised in a vector such as pCDNA3.1 vector. Successful transformants may then be selected, for example using 800 μg/ml G418. Clonal stable cell lines may then be generated by limited dilution to single cells and then may be clonally expanded and tested for VIP -dependent cAMP response. For the cAMP assay, about 3000-15,000 cells (in about 4-25 μl) may be placed in a well of an assay plate. The next day, inhibitor or test inhibitor and VIP may be added in a volume about 1-2 percent of the initial volume. Assay plates may then be returned to a cell incubator for 30 min before addition of a one-half volume of cAMP conjugate and, relative to the amount of cAMP conjugate, an equal volume of anti-cAMP conjugate (Cisbio). After at least 1 h of room-temperature incubation, HTRF signal may be read, for example using Viewlux or EnVision (PerkinElmer Life and Analytical Sciences, Waltham, Mass.). The ratio of […] at 665 nm and 620 nm times 10,000 may be calculated and plotted.
as §2, §3

[3] = target: T1, VIPR2; experiment: % Activity: inhibition of VIP-induced cAMP elevation and β-arrestin recruitment (Table 2)
Text: as §4, §1, §3

Row | inhibition at 0.5 µM ([1]; Batch 1) [%] | inhibition at 1 µM ([1]; Batch 1) [%] | inhibition at 5 µM ([1]; Batch 1) [%] | inhibition at 0.5 µM ([2]; Batch 1) [%] | inhibition at 1 µM ([2]; Batch 1) [%] | inhibition at 5 µM ([2]; Batch 1) [%] | % Activity [3] [%] | inhibition at 0.5 µM ([1]; Batch 2) [%] | inhibition at 1 µM ([1]; Batch 2) [%] | inhibition at 5 µM ([1]; Batch 2) [%] | inhibition at 0.5 µM ([2]; Batch 2) [%] | inhibition at 1 µM ([2]; Batch 2) [%] | inhibition at 5 µM ([2]; Batch 2) [%] | Structure (SMILES)
1 | 11.3 | 20.1 | 17.2 | 14.4 | 16 | 26.5 | 21.85 | – | – | – | – | – | – | O=C(Cc1cccc(Cl)c1)NC[C@@H](O)C[C@@H](Cc1ccccc1)C(=O)N[C@H]1c2ccccc2C[C@H]1O [Compound A19]
2 | 9.9 | 15.2 | -3.1 | 15.5 | 19 | 18.6 | 7.75 | – | – | – | – | – | – | O=C(CCN1C(=O)C=CC1=O)NC[C@@H](O)C[C@@H](Cc1ccccc1)C(=O)N[C@H]1c2ccccc2C[C@H]1O [Compound A21]
3 | 19.2 | 24.3 | 21.1 | 16.4 | 18.2 | 15.9 | 18.5 | – | – | – | – | – | – | O=C(CCCCl)NC[C@@H](O)C[C@@H](Cc1ccccc1)C(=O)N[C@H]1c2ccccc2C[C@H]1O [Compound A22]
4 | 45.8 | 16.1 | 25.8 | 20.8 | 20.2 | 26.6 | 26.2 | – | – | – | – | – | – | C#CCCCC(=O)NC[C@@H](O)C[C@@H](Cc1ccccc1)C(=O)N[C@H]1c2ccccc2C[C@H]1O [Compound A23]
5 | 2.3 | 47.5 | 1.8 | 16.1 | 16.5 | 23.8 | 12.8 | – | – | – | – | – | – | C=Cc1ccc(C(=O)NC[C@@H](O)C[C@@H](Cc2ccccc2)C(=O)N[C@H]2c3ccccc3C[C@H]2O)cc1 [Compound A24]
6 | -0.5 | 18.6 | 16.4 | 14 | 22.3 | 21.1 | 18.75 | – | – | – | – | – | – | O=C(NC[C@@H](O)C[C@@H](Cc1ccccc1)C(=O)N[C@H]1c2ccccc2C[C@H]1O)c1ccc([N+](=O)[O-])cc1 [Compound A25]
7 | 16.2 | 11.3 | 7.8 | 10.7 | 16 | 23.2 | 15.5 | – | – | – | – | – | – | CC(C)(C)c1ccc(C(=O)NC[C@@H](O)C[C@@H](Cc2ccccc2)C(=O)N[C@H]2c3ccccc3C[C@H]2O)cc1 [Compound A26]
8 | 3.7 | 1.4 | 19.7 | 11.8 | 15.9 | 15.2 | 17.45 | – | – | – | – | – | – | NC[C@@H](O)C[C@@H](Cc1ccccc1)C(=O)N[C@H]1c2ccccc2C[C@H]1O [Compound A28]

Second part, the compound before the results:

Row | Structure (SMILES) | inhibition at 0.5 µM ([1]; Batch 1) [%] | inhibition at 1 µM ([1]; Batch 1) [%] | inhibition at 5 µM ([1]; Batch 1) [%] | inhibition at 0.5 µM ([2]; Batch 1) [%] | inhibition at 1 µM ([2]; Batch 1) [%] | inhibition at 5 µM ([2]; Batch 1) [%] | % Activity [3] [%] | inhibition at 0.5 µM ([1]; Batch 2) [%] | inhibition at 1 µM ([1]; Batch 2) [%] | inhibition at 5 µM ([1]; Batch 2) [%] | inhibition at 0.5 µM ([2]; Batch 2) [%] | inhibition at 1 µM ([2]; Batch 2) [%] | inhibition at 5 µM ([2]; Batch 2) [%]
9 | O=C(NC1CCCC1)[C@H](Cc1ccccc1)C[C@H](O)CNS(=O)(=O)c1ccc([N+](=O)[O-])cc1 [Compound B1A] | – | – | – | – | – | – | 6.95 | 17.4 | 17.1 | 9.2 | -2.1 | -4.9 | 4.7
10 | O=C(NC1CCCC1)[C@@H](Cc1ccccc1)C[C@H](O)CNS(=O)(=O)c1ccc([N+](=O)[O-])cc1 [Compound B1B] | – | – | – | – | – | – | 0.5 | -5.7 | -6.1 | 1.3 | -7.5 | -2.5 | -0.3
11 | O=C(NC1Cc2ccccc2C1)[C@H](Cc1ccccc1)C[C@H](O)CNS(=O)(=O)c1ccc([N+](=O)[O-])cc1 [Compound B2A] | – | – | – | – | – | – | 12.9 | -2.7 | 8.1 | 9.8 | 5.7 | 7.5 | 16
12 | O=C(NCc1ccccc1)[C@H](Cc1ccccc1)C[C@H](O)CNS(=O)(=O)c1ccc([N+](=O)[O-])cc1 [Compound B3A] | – | – | – | – | – | – | 10.65 | 1.8 | 4.4 | 24.2 | -1.1 | -1.3 | -2.9
13 | O=C(NCc1ccccc1)[C@@H](Cc1ccccc1)C[C@H](O)CNS(=O)(=O)c1ccc([N+](=O)[O-])cc1 [Compound B3B] | – | – | – | – | – | – | 6.05 | -0.3 | -4.1 | 7.2 | -1 | 1.5 | 4.9
14 | O=C(NC1CCCCCC1)[C@H](Cc1ccccc1)C[C@H](O)CNS(=O)(=O)c1ccc([N+](=O)[O-])cc1 [Compound B5A] | – | – | – | – | – | – | 5.25 | -19.2 | -5.4 | -2.4 | 1.7 | 5.6 | 12.9
15 | O=C(NC1CCCCCC1)[C@@H](Cc1ccccc1)C[C@H](O)CNS(=O)(=O)c1ccc([N+](=O)[O-])cc1 [Compound B5B] | – | – | – | – | – | – | 10.55 | -4 | 3.6 | 6.8 | 15.5 | 10.6 | 14.3
16 | O=C(NN1CCCCC1)[C@H](Cc1ccccc1)C[C@H](O)CNS(=O)(=O)c1ccc([N+](=O)[O-])cc1 [Compound B6A] | – | – | – | – | – | – | 5.45 | -6.4 | 4.4 | 6.5 | 6.3 | 7.1 | 4.4
17 | O=C(NN1CCCCC1)[C@@H](Cc1ccccc1)C[C@H](O)CNS(=O)(=O)c1ccc([N+](=O)[O-])cc1 [Compound B6B] | – | – | – | – | – | – | 5.35 | -0.9 | 3.3 | 4.7 | 9.2 | 12.3 | 6

From US20150239831A1, “INHIBITORS OF CENTRAL NERVOUS SYSTEM VASOACTIVE INHIBITORY PEPTIDE RECEPTOR 2” (The Trustees Of Columbia University In The City Of New York, priority 2012, published 2015)
